# Data as given in patent publication US10745365B2, “Luminogenic and fluorogenic compounds and methods to detect molecules or conditions” (Promega Corporation, priority 2005, dated 2020).
# Like-named read-outs stand apart in the source and are kept apart here.
# How the values were obtained:
# [1] = biological target: T1, QuantiLum Luciferase (firefly luciferase) (Photinus pyralis, UniProt P08659); assay: ATP titration of luciferase reactions with luciferin and fluoroluciferins; format: biochemical
# T1 construct: purchased Promega Corporation El 70
# T1 sequence (P08659 whole entry): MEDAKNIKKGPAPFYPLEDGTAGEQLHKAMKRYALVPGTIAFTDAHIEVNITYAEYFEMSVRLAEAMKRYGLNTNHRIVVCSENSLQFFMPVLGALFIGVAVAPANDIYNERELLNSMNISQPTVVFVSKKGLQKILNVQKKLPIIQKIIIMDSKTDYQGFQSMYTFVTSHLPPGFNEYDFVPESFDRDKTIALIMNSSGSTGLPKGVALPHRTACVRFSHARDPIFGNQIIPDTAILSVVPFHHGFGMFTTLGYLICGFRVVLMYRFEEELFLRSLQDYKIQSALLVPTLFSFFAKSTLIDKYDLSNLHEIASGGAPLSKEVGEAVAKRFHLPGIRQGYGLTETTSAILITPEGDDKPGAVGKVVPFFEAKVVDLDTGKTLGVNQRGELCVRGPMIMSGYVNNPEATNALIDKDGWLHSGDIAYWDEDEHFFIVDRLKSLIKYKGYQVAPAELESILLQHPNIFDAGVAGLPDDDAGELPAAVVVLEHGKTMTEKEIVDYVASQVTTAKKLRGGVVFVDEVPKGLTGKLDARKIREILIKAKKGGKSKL
# Description: AU compounds except 5’-fluoroluciferin and DTT were purchased from Sigma Chemical. To some of this reagent 5 mM ATP (Amersham/Invitrogen) was added, then serially diluted by half-logs to 0.05 mM. Reactions were initiated by adding equal volumes (0.1 ml) of reagent and DMEM medium (Gibco/Invitrogen) containing 0.1% Prionex® (Pentapharm) and 1.4×10-5 mg/ml QuantiLum™ Luciferase (Promega Corporation).
# For ATP titrations for 7′-fluoroluciferin, reagent was created containing 200 mM HEPES, 200 mM PIPES, 1 mM CDTA, 0.5% Tergitol NP-9, 0.03% Benzyl dodecyldimethyl ammonium bromide, 30 mM thiourea, 10 mM magnesium sulfate, and 0.15 mM 7′-fluoroluciferin. This solution was separated into 3 parts and pH of the reagents were 7.4, 7.2 and 6.7. To some of this reagent, 10 mM ATP (Amersham/Invitrogen) was added. The ATP was serially diluted by quarter-logs from 10 mM to 0.32 mM.
# Reactions were initiated by adding equal volumes (0.03 ml) of reagent and DMEM medium (Gibco/Invitrogen) containing 0.1% Prionex® (Pentapharm) and 1.4×10-5 mg/ml QuantiLum™ Luciferase (Promega Corporation).
# Luminescence was measured for 0.5 seconds per well using Berthold Orion luminometer.
# [2] = biological target: T1, QuantiLum Luciferase (firefly luciferase); assay: Luminescence spectra of fluoroluciferins; format: biochemical; details: pH 7.4
# Description: All compounds except fluoroluciferin and ATP were purchased from Sigma Chemical. ATP was purchased from Amersham/Invitrogen.
# Spectra were measured using 0.5s integration with 1 nm increments on a Spex Fluorolog.
# [3] = biological target: T1, QuantiLum Luciferase (firefly luciferase); assay: pH dependence of firefly luciferase signal with luciferin or 5′-fluoroluciferin; format: biochemical
# Description: Aliquots of these solutions were then placed into tubes and buffers were added to 80 mM.
# Luminescent reactions were initiated by combining 100 μl of the luciferase-containing solution and 100 μl of the luciferase detection reagents. Luminescence was integrated over 1 second per sample using the Veritas plate luminometer (Turner Bio Systems). N=3 for each result.
# [4] = tested on: porcine esterase; assay: Two-step luminescent carboxylesterase assay with D-luciferin esters; format: biochemical; details: two step luminescent assay format
# [5] = biological target: T2, S. japonica GST (Schistosoma japonicum, UniProt P08515); format: biochemical; details: for Light Reading: 45 min; for Raw Data light reading: S. japonica GST, 2 mM glutathione
# T2 construct: purchased Sigma Chemical Company G5663
# T2 sequence (P08515 whole entry): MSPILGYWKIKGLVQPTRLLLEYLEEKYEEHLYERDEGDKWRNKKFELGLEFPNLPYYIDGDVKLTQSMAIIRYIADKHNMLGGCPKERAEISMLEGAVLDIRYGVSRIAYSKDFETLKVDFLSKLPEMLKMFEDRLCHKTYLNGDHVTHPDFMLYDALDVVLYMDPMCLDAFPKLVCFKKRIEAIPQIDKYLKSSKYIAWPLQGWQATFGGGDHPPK
# Description: (§1) The derivative was tested in a two step format. For the first step, the derivative was added to a mixture with one of three GSTs with or without glutathione. At different times after the reaction was initiated, a portion was removed and mixed with a luciferase reaction mixture.
# (§2) S. japonica GST: 1 vial with 3 mg GST (Part G5663, Sigma Chemical Company) was dissolved in 500 μl of 10 mM BisTris, pH 6.6.
# (§3) The reactions (Table 1) were assembled by first adding the water and 1 M BisTris solutions in individual 0.5 ml microfuge tubes, then adding the other components except for the GST #3 solution. Finally, the GST #3 (FIG. 12) solution was added to the reactions, the resulting solution was mixed, and the time of addition noted.
# Buffer stock solutions (1 M) of BisTris at pH 6.5, HEPES, pH 7.0, 7.5 and 8.0 and Tricine pH 8.5 were prepared by dissolving solid reagent obtained from Sigma Chemical Corporation and adjusting the pH to the desired value.
# The GST #3 addition was performed last and the solutions were mixed immediately after addition of GST #3. […] After mixing, the light produced by the solution was measured using a Turner TD 20/20 luminometer.
# The stock of S. japonica GST used in Example IA was diluted to 1 mg/ml with 10 mM BisTris pH 6.5.
# The reactions were initiated by addition of GST #3 and mixing. […]
# [6] = tested on: equine GST; assay: Two-step luminescent GST assay with equine GST; format: biochemical; details: for Raw Data light reading: Equine GST, 2 mM glutathione
# Description: as §1, §2, §3
# (§4) After assembly, the enzyme stock solutions were diluted 1:10 into 10 mM HEPES, pH 7.5 and the following additions were made to the reactions.
# (§5) The reactions were allowed to proceed for 30 minutes at room temperature and then 100 μl of P450 Glo reagent was added to each reaction and the light produced by the subsequent solution was measured on a Veritas luminometer.
# [7] = Non-enzymatic conversion of luciferin derivative by glutathione (no GST) and buffer controls; format: biochemical; details: for Light Output: Table 4 reaction 1: BisTris pH 6.5, no glutathione, time post mixing in column head; for Light Reading: no enzyme, 45 min; for Glutathione Signal: glutathione alone minus buffer
# Description: Buffer stock solutions (1 M) of BisTris at pH 6.5, HEPES, pH 7.0, 7.5 and 8.0 and Tricine pH 8.5 were prepared by dissolving solid reagent obtained from Sigma Chemical Corporation and adjusting the pH to the desired value. […]
# [8] = biological target: T3, GST M1-1 (Homo sapiens, UniProt P09488, K173N); assay: Luminescent GST assay with GST M1-1; format: biochemical; details: for Raw Data light reading: GST M1-1, 2 mM glutathione
# T3 construct: purchased Sigma
# T3 sequence (P09488 1-218 K173N): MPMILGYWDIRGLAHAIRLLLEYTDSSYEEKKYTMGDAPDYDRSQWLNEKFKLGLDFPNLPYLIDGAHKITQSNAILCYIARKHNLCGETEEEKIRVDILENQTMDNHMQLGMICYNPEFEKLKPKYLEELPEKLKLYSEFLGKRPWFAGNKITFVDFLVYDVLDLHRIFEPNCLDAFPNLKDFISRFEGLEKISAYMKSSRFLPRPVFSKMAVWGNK
# [9] = Control without MAO: fluorescence of the fluorogenic derivative (MAO substituted with H2O)
# Description: The fluorescent signal was then measured (excitation/emission=355/460 nm) on a Fluoroskan Ascent plate fluorometer.
# This 90 μl contained 35 μl 200 mM Tricine pH 8.3, 35 μl 200 mM Tricine pH 8.7 (or water), 10 μl 200 mM MgSO4, and 10 μl of each substrate dilution.
# [10] = biological target: T4, CYP2D6 (Homo sapiens, UniProt P10635); assay: CYP2D6 inhibition assay with luciferin-6-methylether ethylene glycol ester; format: biochemical; details: substrate luciferin-6-methylether ethylene glycol ester
# T4 construct: purchased Discovery Labware (BD/Gentest); host or cells: insect cell expression system (membrane fractions)
# T4 sequence (P10635 whole entry): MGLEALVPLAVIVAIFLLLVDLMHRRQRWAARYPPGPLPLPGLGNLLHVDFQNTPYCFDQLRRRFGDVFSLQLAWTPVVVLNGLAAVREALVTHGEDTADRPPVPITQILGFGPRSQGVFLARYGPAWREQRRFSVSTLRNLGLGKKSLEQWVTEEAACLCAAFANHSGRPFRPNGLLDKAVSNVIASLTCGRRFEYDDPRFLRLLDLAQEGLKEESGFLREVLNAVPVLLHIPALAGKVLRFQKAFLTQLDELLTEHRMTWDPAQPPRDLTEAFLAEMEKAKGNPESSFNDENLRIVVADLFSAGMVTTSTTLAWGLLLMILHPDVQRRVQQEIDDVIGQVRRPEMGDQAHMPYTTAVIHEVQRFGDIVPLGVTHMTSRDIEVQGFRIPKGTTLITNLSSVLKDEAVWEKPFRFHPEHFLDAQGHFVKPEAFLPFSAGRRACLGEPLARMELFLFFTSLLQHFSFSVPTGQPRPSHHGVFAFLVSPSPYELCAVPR
# [11] = biological target: GST A1-1 (Homo sapiens, UniProt P08263); details: for Raw Data light reading: GST A1-1, 2 mM glutathione
# GST A1-1, sequence (P08263 whole entry): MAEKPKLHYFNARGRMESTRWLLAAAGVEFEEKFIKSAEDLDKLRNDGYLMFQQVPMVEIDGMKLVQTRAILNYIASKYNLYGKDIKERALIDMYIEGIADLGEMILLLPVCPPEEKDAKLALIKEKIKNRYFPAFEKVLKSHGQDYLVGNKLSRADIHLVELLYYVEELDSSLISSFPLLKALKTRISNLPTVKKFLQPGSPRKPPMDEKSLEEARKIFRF
# Description: Enzyme and glutathione stock solutions are described in Example IA.
# as §4
# GST A1-1 (Sigma) is an enzyme found in a few body tissues, including kidney, intestine, lung and liver. GST M1-1 (Sigma) is a type b allelic variant, which corresponds to GST psi purified from human liver.
# as §5
compound,measurement,setting,value
O=C(O)[C@H]1CSC(c2nc3cc(F)c(O)cc3s2)=N1 [5′-fluoroluciferin],ATP requirement of luciferase reaction,[1],saturated with ATP at a higher concentration than the reaction using luciferin
same,blue shift of luminescence λmax from regular luciferin,[2],approximately 25 nm
same,blue shift of luminescence λmax from regular luciferin,[2]; listed as 5′ fluoroluciferin,about 10 nm
same,Relative Luminescence (% of 8.3 Luciferin),"[3]; pH 6.900, MOPS",19%
same,Relative Luminescence (% of 8.3 Luciferin),"[3]; pH 7.133, MOPS",22%
same,Relative Luminescence (% of 8.3 Luciferin),"[3]; pH 7.296, MOPS",23%
same,Relative Luminescence (% of 8.3 Luciferin),"[3]; pH 7.303, HEPES",22%
same,Relative Luminescence (% of 8.3 Luciferin),"[3]; pH 7.499, MOPS",23%
same,Relative Luminescence (% of 8.3 Luciferin),"[3]; pH 7.521, HEPES",25%
same,Relative Luminescence (% of 8.3 Luciferin),"[3]; pH 7.673, Tricine",24%
same,Relative Luminescence (% of 8.3 Luciferin),"[3]; pH 7.720, HEPES",27%
same,Relative Luminescence (% of 8.3 Luciferin),"[3]; pH 7.883, Tricine",24%
same,Relative Luminescence (% of 8.3 Luciferin),"[3]; pH 7.892, HEPES",26%
same,Relative Luminescence (% of 8.3 Luciferin),"[3]; pH 8.100, Tricine",24%
same,Relative Luminescence (% of 8.3 Luciferin),"[3]; pH 8.327, Tricine",22%
CCOC(=O)[C@H]1CSC(c2nc3ccc(O)cc3s2)=N1 [D-luciferin ethyl ester],carboxylesterase substrate,[4],effective in this format
COC(=O)[C@H]1CSC(c2nc3ccc(O)cc3s2)=N1 [D-luciferin methyl ester],carboxylesterase substrate,[4],effective in this format
O=C(OCc1cccnc1)[C@H]1CSC(c2nc3ccc(O)cc3s2)=N1 [D-luciferin picolinyl ester],carboxylesterase substrate,[4],effective in this format
"O=C(O)[C@H]1CSC(c2ccc3cc(Oc4ccc(C(F)(F)F)cc4[N+](=O)[O-])ccc3n2)=N1 [GST #3, 6-(2-nitro-4-trifluoromethyl-phenoxy)quinolinyl-luciferin]",Light Reading,"[5]; reaction 2: pH 7.5, 50 μl 10 mM GSH, 10 μl S. japonica GST",61.58
same,Light Reading,"[5]; reaction 4: pH 7.5, 30 μl 10 mM GSH, enzyme",55.18
same,Light Reading,"[5]; reaction 6: pH 7.5, 10 μl 10 mM GSH, enzyme",52.23
same,Light Reading,"[5]; reaction 8: pH 8.0, 50 μl 10 mM GSH, enzyme",152.3
same,Light Reading,"[5]; reaction 10: pH 8.0, 30 μl 10 mM GSH, enzyme",135.6
same,Light Reading,"[5]; reaction 12: pH 8.0, 10 μl 10 mM GSH, enzyme",97.47
same,Light Reading,"[5]; reaction 14: pH 8.5, 50 μl 10 mM GSH, enzyme",532.4
same,Light Reading,"[5]; reaction 16: pH 8.5, 30 μl 10 mM GSH, enzyme",416.7
same,Light Reading,"[5]; reaction 18: pH 8.5, 10 μl 10 mM GSH, enzyme",267.3
same,GST preference,[6]; light generating reaction,better substrate for equine GST in a light generating reaction than GST M1-1 and GST A1-1
same,Light Output,[7]; 20 minutes after mixing,0.976
same,Light Output,[7]; 40 minutes after mixing,1.099
same,Light Output,[7]; at time of mixing,1.01
same,Light Reading,"[7]; Table 6 reaction 1: pH 7.5, 50 μl 10 mM GSH",26.3
same,Light Reading,"[7]; reaction 3: pH 7.5, 30 μl 10 mM GSH",19.21
same,Light Reading,"[7]; reaction 5: pH 7.5, 10 μl 10 mM GSH",10.73
same,Light Reading,"[7]; reaction 7: pH 8.0, 50 μl 10 mM GSH",65.98
same,Light Reading,"[7]; reaction 9: pH 8.0, 30 μl 10 mM GSH",48.41
same,Light Reading,"[7]; reaction 11: pH 8.0, 10 μl 10 mM GSH",22.52
same,Light Reading,"[7]; reaction 13: pH 8.5, 50 μl 10 mM GSH",295.2
same,Light Reading,"[7]; reaction 15: pH 8.5, 30 μl 10 mM GSH",199.4
same,Light Reading,"[7]; reaction 17: pH 8.5, 10 μl 10 mM GSH",97.89
"COC(=O)[C@H]1CSC(c2ccc3cc(Oc4ccc(C(F)(F)F)cc4[N+](=O)[O-])ccc3n2)=N1 [GST-4, Methyl 6-(2-nitro-4-trifluoromethyl-phenoxy)quinolinyl-luciferin ester]",GST preference,[8]; light generating reaction,better substrate for GST M1-1 in a light generating reaction than GST A1-1
"CNCCCOc1ccc2c(C)cc(=O)oc2c1 [MAO-F3, 7-(4-methyl-3-N-methylaminopropoxy)coumarin]",no MAO fluorescent signal,[9]; [MAO-F3] 0.21 μM,48
same,no MAO fluorescent signal,[9]; [MAO-F3] 863.75 μM,6461
CC(NC(C)(C)C)C(=O)c1cccc(Cl)c1 (centres unmarked) [bupropion],IC50,[10],33 µM
Clc1ccccc1C(c1ccccc1)(c1ccccc1)n1ccnc1 [clotrimazole],IC50,[10],22.6 µM
CC(C)N(CCC(C(N)=O)(c1ccccc1)c1ccccn1)C(C)C (centres unmarked) [disopyramide],IC50,[10],220 µM
Acetyl Luciferin,Net Enzyme Signal,[5]; Net 2 mM AL,"91,082"
same,Net Enzyme Signal,[5]; Net 20 mM AL,"902,203"
same,Raw Data light reading,[5]; 2 mM AL,"126,288"
same,Raw Data light reading,[5]; 20 mM AL,"1,233,119"
same,Raw Data light reading,[8]; 2 mM AL,"42,867"
same,Raw Data light reading,[8]; 20 mM AL,"419,400"
same,Net Enzyme Signal,[8]; Net 2 mM AL,"7,661"
same,Net Enzyme Signal,[8]; Net 20 mM AL,"88,484"
same,Raw Data light reading,[6]; 2 mM AL,"39,036"
same,Raw Data light reading,[6]; 20 mM AL,"361,356"
same,Net Enzyme Signal,[6]; Net 2 mM AL,"3,830"
same,Net Enzyme Signal,[6]; Net 20 mM AL,"30,440"
same,Glutathione Signal,[7]; 2 mM AL,"14,557"
same,Glutathione Signal,[7]; 20 mM AL,"147,064"
same,Raw Data light reading,"[7]; Buffer Alone, 2 mM AL, pH 7.5, 30 min","20,649"
same,Raw Data light reading,"[7]; Buffer Alone, 20 mM AL, pH 7.5, 30 min","183,852"
same,Raw Data light reading,"[7]; Glutathione Alone (2 mM), 2 mM AL","35,206"
same,Raw Data light reading,"[7]; Glutathione Alone (2 mM), 20 mM AL","330,916"
same,Raw Data light reading,[11]; 2 mM AL,"42,725"
same,Raw Data light reading,[11]; 20 mM AL,"365,770"
same,Net Enzyme Signal,[11]; Net 2 mM AL,"7,519"
same,Net Enzyme Signal,[11]; Net 20 mM AL,"34,854"
